Laboratory results: ChEMBL document CHEMBL1136014 (J Med Chem, 2002)

Legend:
[1] = system: Rattus norvegicus; assay: Effects on liver was determined from serum cholesterol levels in female (5) rats after 2 weeks of daily oral administration of compound at 300 mg/kg (Control = 0.73+/-0.05); format: functional
[2] = system: Cavia porcellus; assay: Action potential duration at 50% levels of repolarization in guinea pig papillary muscles after twenty days of daily i.p. injection of 40 mg/kg (Control = 168); format: functional, Muscle tissue; details: route intraperitoneal
[3] = system: Rattus norvegicus; assay: Serum concentrations of T4 in rats after 2 weeks of daily oral administration of compound at 100 mg/kg (Control = 33.1+/-5.00); format: functional
[4] = system: Rattus norvegicus; assay: Effects on liver was determined from serum alanine aminotransferase levels in male (5) rats after 2 weeks of daily oral administration of compound at 300 mg/kg (Control = 30+/-3); format: functional
[5] = system: Rattus norvegicus; assay: Serum concentrations of T3 in rats after 2 weeks of daily oral administration of compound at 300 mg/kg (Control = 0.74+/-0.15); format: functional
[6] = system: Rattus norvegicus; assay: Effects on liver was determined from serum alanine aminotransferase levels in female (5) rats after 2 weeks of daily oral administration of compound at 100 mg/kg (Control = 23+/-5); format: functional
[7] = system: Rattus norvegicus; assay: Effects on liver was determined from serum aspartate aminotransferase levels in male (5) rats after 2 weeks of daily oral administration of compound at 300 mg/kg (Control = 111+/-21); format: functional
[8] = system: Rattus norvegicus; assay: Serum concentrations of T3 in rats after 2 weeks of daily oral administration of compound at 100 mg/kg (Control = 0.74+/-0.15); format: functional
[9] = system: Rattus norvegicus; assay: Serum concentrations of Thyrotropin in rats after 2 weeks of daily oral administration of compound at 30 mg/kg (Control = 11.00+/-1.97); format: functional
[10] = system: Rattus norvegicus; assay: Effects on liver was determined from serum aspartate aminotransferase levels in male (5) rats after 2 weeks of daily oral administration of compound at 100 mg/kg (Control = 111+/-21); format: functional
[11] = system: Rattus norvegicus; assay: Serum concentrations of Thyrotropin in rats after 2 weeks of daily oral administration of compound at 100 mg/kg (Control = 11.00+/-1.97); format: functional
[12] = system: Rattus norvegicus; assay: Effects on liver was determined from serum alanine aminotransferase levels in female (5) rats after 2 weeks of daily oral administration of compound at 300 mg/kg (Control = 23+/-5); format: functional
[13] = system: Rattus norvegicus; assay: Effects on liver was determined from serum cholesterol levels in female (5) rats after 2 weeks of daily oral administration of compound at 30 mg/kg (Control = 0.73+/-0.05); format: functional
[14] = system: Rattus norvegicus; assay: Effects on liver was determined from serum alanine aminotransferase levels in male (5) rats after 2 weeks of daily oral administration of compound at 100 mg/kg (Control = 30+/-3); format: functional
[15] = system: Cavia porcellus; assay: Effective refractory period in guinea pig papillary muscles after twenty days of daily i.p. injection of 40 mg/kg Control = 201); format: functional, Muscle tissue; details: route intraperitoneal
[16] = biological target: T1, Thyroid hormone receptor beta (Homo sapiens, UniProt P10828)
T1 sequence (P10828 whole entry): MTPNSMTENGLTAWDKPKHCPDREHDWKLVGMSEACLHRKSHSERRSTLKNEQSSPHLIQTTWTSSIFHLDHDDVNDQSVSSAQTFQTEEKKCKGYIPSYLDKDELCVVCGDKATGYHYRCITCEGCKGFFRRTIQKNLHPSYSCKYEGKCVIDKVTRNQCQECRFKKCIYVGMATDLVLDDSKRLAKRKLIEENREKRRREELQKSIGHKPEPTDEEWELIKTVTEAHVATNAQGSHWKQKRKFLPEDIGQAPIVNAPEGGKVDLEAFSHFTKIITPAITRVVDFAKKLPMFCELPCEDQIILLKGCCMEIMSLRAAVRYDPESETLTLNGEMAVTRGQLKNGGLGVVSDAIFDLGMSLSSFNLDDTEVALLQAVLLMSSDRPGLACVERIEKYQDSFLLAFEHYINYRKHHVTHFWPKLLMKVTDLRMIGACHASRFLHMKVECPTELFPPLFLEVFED
Description: Concentration required to inhibit 50% of binding of [125I]T3 to human Thyroid hormone receptor beta 1 in CHO-K1 cells

[17] = system: Rattus norvegicus; assay: Effects on liver was determined from serum cholesterol levels in female (5) rats after 2 weeks of daily oral administration of compound at 100 mg/kg (Control = 0.73+/-0.05); format: functional
[18] = system: Rattus norvegicus; assay: Effects on liver was determined from serum alanine aminotransferase levels in female (5) rats after 2 weeks of daily oral administration of compound at 30 mg/kg (Control = 23+/-5); format: functional
[19] = system: Rattus norvegicus; assay: Effects on liver was determined from serum cholesterol levels in male (5) rats after 2 weeks of daily oral administration of compound at 30 mg/kg (Control = 0.67+/-0.13); format: functional
[20] = system: Rattus norvegicus; assay: Serum concentrations of T3 in rats after 2 weeks of daily oral administration of compound at 30 mg/kg (Control = 0.74+/-0.15); format: functional
[21] = system: CHO-K1; assay: Agonism of compound towards thyroid response element (TRAF beta) in CHO-K1 cells; format: functional, cell-based; details: Cricetulus griseus
[22] = system: Rattus norvegicus; assay: Effects on liver was determined from serum aspartate aminotransferase levels in female (5) rats after 2 weeks of daily oral administration of compound at 100 mg/kg (Control = 106+/-18); format: functional
[23] = system: CHO-K1; assay: Agonism of compound towards thyroid response element (TRAF alpha) in CHO-K1 cells; format: functional, cell-based; details: Cricetulus griseus
[24] = system: Cavia porcellus; assay: Ratio of action potential duration (APD90/APD50) in guinea pig papillary muscles after twenty days of daily i.p. injection of 40 mg/kg Control = 1.10); format: functional, Papillary muscle; details: route intraperitoneal
[25] = system: Rattus norvegicus; assay: Effects on liver was determined from serum aspartate aminotransferase levels in female (5) rats after 2 weeks of daily oral administration of compound at 30 mg/kg (Control = 106+/-18); format: functional
[26] = system: Cavia porcellus; assay: Action potential amplitude of compound on guinea pig papillary muscles after twenty days of daily i.p. injection of 40 mg/kg Control = 115); format: functional, Muscle tissue; details: route intraperitoneal
[27] = system: CHO-K1; assay: Antagonism of compound towards thyroid response element (TRAF beta) in CHO-K1 cells; details: Cricetulus griseus
[28] = system: CHO-K1; assay: Antagonism of compound towards thyroid response element (TRAF alpha) in CHO-K1 cells; details: Cricetulus griseus
[29] = system: Cavia porcellus; assay: Vmax of the action potential amplitude in guinea pig papillary muscles after twenty days of daily i.p. injection of 40 mg/kg Control = 205); format: functional; design: dose 40 mg/kg; details: Muscle tissue
[30] = system: Rattus norvegicus; assay: Serum concentrations of T4 in rats after 2 weeks of daily oral administration of compound at 30 mg/kg (Control = 33.1+/-5.00); format: functional
[31] = system: Rattus norvegicus; assay: Effects on liver was determined from serum alanine aminotransferase levels in male (5) rats after 2 weeks of daily oral administration of compound at 30 mg/kg (Control = 30+/-3); format: functional
[32] = system: Rattus norvegicus; assay: Effects on liver was determined from serum cholesterol levels in male (5) rats after 2 weeks of daily oral administration of compound at 100 mg/kg (Control = 0.67+/-0.13); format: functional
[33] = system: Rattus norvegicus; assay: Effects on liver was determined from serum cholesterol levels in male (5) rats after 2 weeks of daily oral administration of compound at 300 mg/kg (Control = 0.67+/-0.13); format: functional
[34] = system: Rattus norvegicus; assay: Serum concentrations of T4 in rats after 2 weeks of daily oral administration of compound at 300 mg/kg (Control = 33.1+/-5.00); format: functional
[35] = system: Cavia porcellus; assay: Action potential duration at 90% levels of repolarization in guinea pig papillary muscles after twenty days of daily i.p. injection of 40 mg/kg Control = 186); format: functional, Muscle tissue; details: route intraperitoneal
[36] = system: Rattus norvegicus; assay: Effects on liver was determined from serum aspartate aminotransferase levels in male (5) rats after 2 weeks of daily oral administration of compound at 30 mg/kg (Control = 111+/-21); format: functional
[37] = biological target: T2, Thyroid hormone receptor alpha (Homo sapiens, UniProt P10827)
T2 sequence (P10827 whole entry): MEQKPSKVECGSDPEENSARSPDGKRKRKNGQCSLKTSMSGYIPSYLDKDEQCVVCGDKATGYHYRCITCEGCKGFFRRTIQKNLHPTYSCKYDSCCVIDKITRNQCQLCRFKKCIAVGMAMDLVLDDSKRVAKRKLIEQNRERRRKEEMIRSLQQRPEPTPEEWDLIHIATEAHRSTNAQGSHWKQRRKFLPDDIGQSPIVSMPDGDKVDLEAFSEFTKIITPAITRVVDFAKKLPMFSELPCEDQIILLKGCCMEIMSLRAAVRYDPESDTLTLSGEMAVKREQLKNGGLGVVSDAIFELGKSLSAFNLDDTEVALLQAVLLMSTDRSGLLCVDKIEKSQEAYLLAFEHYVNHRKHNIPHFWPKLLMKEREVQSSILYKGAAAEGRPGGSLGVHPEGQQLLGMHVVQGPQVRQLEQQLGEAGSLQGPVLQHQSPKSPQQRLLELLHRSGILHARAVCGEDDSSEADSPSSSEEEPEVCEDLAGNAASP
Description: Concentration required to inhibit 50% of binding of [125I]-T3 to human Thyroid hormone receptor alpha-1 in CHO-K1 cells

[38] = system: Rattus norvegicus; assay: Effects on liver was determined from serum aspartate aminotransferase levels in female (5) rats after 2 weeks of daily oral administration of compound at 300 mg/kg (Control = 106+/-18); format: functional
[39] = system: Rattus norvegicus; assay: Serum concentrations of Thyrotropin in rats after 2 weeks of daily oral administration of compound at 300 mg/kg (Control = 11.00+/-1.97); format: functional
[40] = biological target: L-type Ca2+ channel, dihydropyridine site (Rattus norvegicus, UniProt P22002+P27732+Q02485); assay: Percentage inhibition of [3H]nitrendipine binding to L-type [Ca2+] channel dihydropyridine site in rat cortical membranes at 2 uM (70-80 %); format: cell membranes, Membrane; details: probe [3H]nitrendipine
[41] = biological target: Sodium channel alpha subunits; brain (Types I, II, III) (Rattus norvegicus) (UniProt P04775+P04774+P08104); details: Forebrain, Membrane, 2 uM
Sodium channel alpha subunits; brain (Types I, II, III) (Rattus norvegicus), sequence (P04775 whole entry, looked up, other chains not shown): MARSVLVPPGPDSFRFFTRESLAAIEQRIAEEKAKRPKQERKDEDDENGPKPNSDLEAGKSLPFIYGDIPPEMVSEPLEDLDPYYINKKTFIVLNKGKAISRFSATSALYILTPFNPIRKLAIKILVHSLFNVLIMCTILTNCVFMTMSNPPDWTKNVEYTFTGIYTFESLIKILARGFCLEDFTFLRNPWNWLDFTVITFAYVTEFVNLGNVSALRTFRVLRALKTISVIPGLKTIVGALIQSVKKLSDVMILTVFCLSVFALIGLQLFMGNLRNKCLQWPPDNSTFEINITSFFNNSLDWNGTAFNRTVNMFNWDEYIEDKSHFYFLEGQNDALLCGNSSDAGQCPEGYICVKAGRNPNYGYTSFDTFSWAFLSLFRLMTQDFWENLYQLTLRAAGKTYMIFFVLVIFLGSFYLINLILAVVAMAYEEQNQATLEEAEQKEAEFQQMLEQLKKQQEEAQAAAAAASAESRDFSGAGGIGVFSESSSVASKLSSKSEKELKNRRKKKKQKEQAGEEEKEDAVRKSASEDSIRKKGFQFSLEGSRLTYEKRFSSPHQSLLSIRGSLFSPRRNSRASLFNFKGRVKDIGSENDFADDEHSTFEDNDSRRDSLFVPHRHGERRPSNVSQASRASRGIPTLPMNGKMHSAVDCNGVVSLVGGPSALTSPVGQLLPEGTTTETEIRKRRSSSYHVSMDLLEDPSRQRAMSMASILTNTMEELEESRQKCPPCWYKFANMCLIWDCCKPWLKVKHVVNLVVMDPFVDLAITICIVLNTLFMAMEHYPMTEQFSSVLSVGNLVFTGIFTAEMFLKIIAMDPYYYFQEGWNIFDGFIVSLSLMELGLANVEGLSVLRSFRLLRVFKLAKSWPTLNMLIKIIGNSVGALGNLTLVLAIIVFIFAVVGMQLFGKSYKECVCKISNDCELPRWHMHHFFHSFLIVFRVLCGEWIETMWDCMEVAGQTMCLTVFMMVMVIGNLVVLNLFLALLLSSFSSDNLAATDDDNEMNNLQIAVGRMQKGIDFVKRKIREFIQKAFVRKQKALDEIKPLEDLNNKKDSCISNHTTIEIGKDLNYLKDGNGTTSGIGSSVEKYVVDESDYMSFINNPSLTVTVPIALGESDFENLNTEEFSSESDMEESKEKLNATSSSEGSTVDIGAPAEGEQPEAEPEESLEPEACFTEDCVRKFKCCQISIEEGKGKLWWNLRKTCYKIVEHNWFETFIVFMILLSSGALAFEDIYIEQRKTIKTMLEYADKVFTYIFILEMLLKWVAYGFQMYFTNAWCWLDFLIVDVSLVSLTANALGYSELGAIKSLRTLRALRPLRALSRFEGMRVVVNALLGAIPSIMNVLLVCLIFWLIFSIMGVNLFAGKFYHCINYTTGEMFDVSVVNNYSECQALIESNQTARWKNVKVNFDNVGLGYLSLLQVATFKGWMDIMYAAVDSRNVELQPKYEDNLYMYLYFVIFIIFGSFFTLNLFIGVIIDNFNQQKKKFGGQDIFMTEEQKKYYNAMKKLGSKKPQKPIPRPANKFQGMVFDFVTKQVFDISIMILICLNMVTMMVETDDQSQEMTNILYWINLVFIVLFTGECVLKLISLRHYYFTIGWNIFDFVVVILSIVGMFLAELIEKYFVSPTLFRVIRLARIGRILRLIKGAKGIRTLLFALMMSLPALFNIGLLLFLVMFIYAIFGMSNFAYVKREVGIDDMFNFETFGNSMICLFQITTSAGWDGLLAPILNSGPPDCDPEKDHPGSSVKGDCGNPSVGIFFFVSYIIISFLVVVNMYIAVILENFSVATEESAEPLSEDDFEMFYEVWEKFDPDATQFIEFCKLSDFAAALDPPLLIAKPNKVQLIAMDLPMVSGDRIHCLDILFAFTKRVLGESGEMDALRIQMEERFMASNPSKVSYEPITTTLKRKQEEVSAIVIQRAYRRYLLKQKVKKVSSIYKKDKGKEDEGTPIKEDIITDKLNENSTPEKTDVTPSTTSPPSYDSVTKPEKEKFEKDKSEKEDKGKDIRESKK
Sodium channel alpha subunits; brain (Types I, II, III) (Rattus norvegicus), sequence (P08104 whole entry, looked up, other chains not shown): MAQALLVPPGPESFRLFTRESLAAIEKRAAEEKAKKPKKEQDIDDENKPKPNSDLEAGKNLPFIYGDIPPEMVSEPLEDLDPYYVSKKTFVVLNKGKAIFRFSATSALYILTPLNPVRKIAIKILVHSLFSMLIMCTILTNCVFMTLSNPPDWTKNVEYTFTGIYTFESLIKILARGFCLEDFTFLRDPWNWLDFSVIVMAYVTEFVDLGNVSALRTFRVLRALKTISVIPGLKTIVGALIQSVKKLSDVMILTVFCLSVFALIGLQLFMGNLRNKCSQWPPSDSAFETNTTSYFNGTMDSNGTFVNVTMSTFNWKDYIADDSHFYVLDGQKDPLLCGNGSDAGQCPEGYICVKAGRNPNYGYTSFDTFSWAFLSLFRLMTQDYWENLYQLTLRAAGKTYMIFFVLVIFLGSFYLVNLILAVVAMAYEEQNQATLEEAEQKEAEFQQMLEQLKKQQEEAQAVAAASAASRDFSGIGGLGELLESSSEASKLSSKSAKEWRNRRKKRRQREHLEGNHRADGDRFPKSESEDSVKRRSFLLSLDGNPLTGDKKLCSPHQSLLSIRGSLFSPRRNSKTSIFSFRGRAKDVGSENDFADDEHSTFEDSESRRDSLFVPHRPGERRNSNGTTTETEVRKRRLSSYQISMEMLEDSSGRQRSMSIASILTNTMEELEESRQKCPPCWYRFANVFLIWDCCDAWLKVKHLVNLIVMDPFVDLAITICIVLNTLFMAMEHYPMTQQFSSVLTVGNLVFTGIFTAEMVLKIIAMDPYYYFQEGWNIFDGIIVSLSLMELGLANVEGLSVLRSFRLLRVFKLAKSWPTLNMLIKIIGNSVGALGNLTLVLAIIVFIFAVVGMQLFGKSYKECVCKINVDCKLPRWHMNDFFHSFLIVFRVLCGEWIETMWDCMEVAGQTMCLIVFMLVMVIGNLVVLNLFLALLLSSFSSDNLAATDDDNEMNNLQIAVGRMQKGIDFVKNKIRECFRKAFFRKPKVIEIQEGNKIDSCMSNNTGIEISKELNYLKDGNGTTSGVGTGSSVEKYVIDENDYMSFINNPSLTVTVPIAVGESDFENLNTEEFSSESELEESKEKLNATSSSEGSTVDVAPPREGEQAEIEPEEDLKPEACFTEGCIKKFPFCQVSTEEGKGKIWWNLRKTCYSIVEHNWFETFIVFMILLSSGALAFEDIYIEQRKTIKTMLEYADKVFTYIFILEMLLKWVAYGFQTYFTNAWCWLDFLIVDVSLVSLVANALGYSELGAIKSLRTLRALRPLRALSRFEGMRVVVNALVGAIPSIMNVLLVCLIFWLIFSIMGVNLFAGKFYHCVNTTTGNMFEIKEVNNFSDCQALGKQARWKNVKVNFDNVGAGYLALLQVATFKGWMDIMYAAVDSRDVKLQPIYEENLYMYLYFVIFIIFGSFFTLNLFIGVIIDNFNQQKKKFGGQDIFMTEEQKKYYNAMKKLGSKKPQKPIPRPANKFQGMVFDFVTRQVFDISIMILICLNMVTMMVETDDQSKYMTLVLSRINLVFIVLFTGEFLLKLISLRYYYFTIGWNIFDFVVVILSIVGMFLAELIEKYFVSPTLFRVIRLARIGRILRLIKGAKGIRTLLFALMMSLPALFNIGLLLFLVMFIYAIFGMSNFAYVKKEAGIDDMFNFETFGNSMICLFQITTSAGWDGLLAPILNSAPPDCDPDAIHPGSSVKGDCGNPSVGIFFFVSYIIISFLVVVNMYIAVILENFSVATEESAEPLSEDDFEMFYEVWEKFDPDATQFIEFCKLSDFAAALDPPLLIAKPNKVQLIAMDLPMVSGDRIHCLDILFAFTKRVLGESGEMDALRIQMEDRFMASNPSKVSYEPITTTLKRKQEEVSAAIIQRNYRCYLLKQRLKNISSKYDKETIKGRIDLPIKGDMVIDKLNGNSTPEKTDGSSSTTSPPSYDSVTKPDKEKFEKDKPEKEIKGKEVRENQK

[42] = system: CHO-K1; assay: Percentage agonism of compound towards thyroid response element (TRAF alpha) in CHO-K1 cells at 10 uM; Partial agonist; format: functional, Cricetulus griseus

Structure (SMILES) | Cholestrol levels [1] [g/L] | Thyroid status [3] [nM l-1] | ALAT levels [4] [IU/l] | Thyroid status [5] [nM l-1] | ALAT levels [6] [IU/l] | ASAT levels [7] [IU/l] | Thyroid status [8] [nM l-1] | Thyroid status [9] [ng/mL] | ASAT levels [10] [IU/l] | Thyroid status [11] [ng/mL] | ALAT levels [12] [IU/l] | Cholestrol levels [13] [g/L] | ALAT levels [14] [IU/l] | IC50 [16] [µM] | Cholestrol levels [17] [g/L] | EC50 [21] [µM] | EC50 [23] [µM] | IC50 [27] [µM] | IC50 [28] [µM] | IC50 [37] [µM] | also measured
Cc1oc2ccccc2c1Cc1cc(I)c(OCC(=O)O)c(I)c1 | 0.93 | 37.1 | 67 | 0.52 | 40 | 102 | 0.51 | 14.2 | 111 | 16.6 | 54 | 0.68 | 43 | 5.1 | 0.69 | > 10 | > 10 | 4.1 | 2.2 | 4.5 | APD50 [2]: 182 ms; ERP [15]: 223 ms; ALAT levels [18]: 21 IU/l; Cholestrol levels [19]: 0.63 g/L; Thyroid status [20]: 0.52 nM l-1; ASAT levels [22]: 114 IU/l; Ratio [24]: 1.22; ASAT levels [25]: 101 IU/l; APA [26]: 116 mV; Vmax [29]: 192 V s-1; Thyroid status [30]: 35.1 nM l-1; ALAT levels [31]: 30 IU/l; Cholestrol levels [32]: 0.78 g/L; Cholestrol levels [33]: 0.91 g/L; Thyroid status [34]: 46.6 nM l-1; APD90 [35]: 219 ms; ASAT levels [36]: 104 IU/l; ASAT levels [38]: 115 IU/l; Thyroid status [39]: 16.6 ng/mL
CCCCc1oc2ccccc2c1C(=O)c1cc(I)c(OCCN(CC)CC)c(I)c1 [AMIODARONE] | 1.12 | 43.2 | 103 | 0.28 | 62 | 550 | 0.66 | 13.9 | 131 | 16.1 | 284 | 0.89 | 62 | – | 1.18 | – | – | – | – | – | inhibition at 2 µM [40]: 80%; ALAT levels [18]: 23 IU/l; Cholestrol levels [19]: 0.77 g/L; Thyroid status [20]: 0.66 nM l-1; ASAT levels [22]: 133 IU/l; ASAT levels [25]: 109 IU/l; Thyroid status [30]: 43.9 nM l-1; ALAT levels [31]: 35 IU/l; Cholestrol levels [32]: 1.26 g/L; Cholestrol levels [33]: 1.39 g/L; Thyroid status [34]: 22.3 nM l-1; ASAT levels [36]: 110 IU/l; ASAT levels [38]: 2052 IU/l; Thyroid status [39]: 11.2 ng/mL; inhibition [41]: 70%
Cc1oc2ccccc2c1C(=O)c1cc(I)c(OCC(=O)O)c(I)c1 | – | – | – | – | – | – | – | – | – | – | – | – | – | 0.48 | – | 1.7 | 0.45 | > 10 | > 10 | 0.82 | Effect [42]: 56%
CCCCc1oc2ccccc2c1C(=O)c1cc(I)c(OCC(=O)O)c(I)c1 | – | – | – | – | – | – | – | – | – | – | – | – | – | – | – | > 10 | > 10 | > 10 | > 10 | 1.4 | –
